# Results published in article PMC7916057.
# Experiments:
# [1] = tested on: AS1411 (FRET-labeled) (DNA, G4) GGTGGTGGTGGTTGTGGTGGTGGTGG; experiment: FRET melting; conditions: K+ 140 mM; 10 mM lithium cacodylate pH 7.2; ligand 4 eq., DNA 0.2 µM
# [2] = tested on: AS1411-N6 (FRET-labeled) (DNA, G4) GGTTGGGGTGGTGGTGGTTGTGGTGGTGGTGGCCAACC; experiment: FRET melting; conditions: K+ 140 mM; 10 mM lithium cacodylate pH 7.2; ligand 4 eq., DNA 0.2 µM
# [3] = tested on: AS1411 (biotin-labeled) (DNA, G4) GGTGGTGGTGGTTGTGGTGGTGGTGG; experiment: SPR; conditions: K+ 140 mM; 10 mM phosphate, 25 °C; 1:1 affinity model
# [4] = tested on: AS1411 (DNA, G4) GGTGGTGGTGGTTGTGGTGGTGGTGG; experiment: CD spectra; conditions: K+ 140 mM; 10 mM lithium cacodylate; ellipticity increase
# [5] = tested on: AS1411-N6 (biotin-labeled) (DNA, G4) GGTTGGGGTGGTGGTGGTTGTGGTGGTGGTGGCCAACC; experiment: SPR; conditions: K+ 140 mM; 10 mM phosphate, 25 °C; 1:1 affinity model
# [6] = tested on: AS1411-N6 (DNA, G4) GGTTGGGGTGGTGGTGGTTGTGGTGGTGGTGGCCAACC; experiment: CD melting (260 nm); conditions: K+ 140 mM; 10 mM lithium cacodylate pH 7.2; ligand 4 eq., DNA 10 µM
# [7] = tested on: AS1411-N6 (DNA, G4) GGTTGGGGTGGTGGTGGTTGTGGTGGTGGTGGCCAACC; experiment: 1H NMR titration (imino region); conditions: 10 mM potassium phosphate pH 6.9, 10% D2O, 25 °C; duplex signals lost at 3 eq.
# [8] = tested on: AS1411-N6 (DNA, G4) GGTTGGGGTGGTGGTGGTTGTGGTGGTGGTGGCCAACC; experiment: CD spectra; conditions: K+ 140 mM, 10 mM lithium cacodylate
# [9] = tested on: AS1411 (DNA, G4) GGTGGTGGTGGTTGTGGTGGTGGTGG; experiment: CD melting (260 nm); conditions: K+ 140 mM; 10 mM lithium cacodylate pH 7.2; ligand equivalents not given
# [10] = molecular target: T1, nucleolin RBD1,2 (NCL RBD 1,2) (UniProt P19338 307-466); experiment: fluorescence titration; PhenDC3; PAGE: 10 mM phosphate, 140 mM KCl, 20 uM DNA, 1:1(:1) ratio, 30 min; fluorescence titration buffer, pH and temperature not given in the material; conditions: protein: recombinant; unlabelled in PAGE; stem-loop duplex plus G4; monomer major, dimer band also seen
# T1 sequence (P19338 307-466): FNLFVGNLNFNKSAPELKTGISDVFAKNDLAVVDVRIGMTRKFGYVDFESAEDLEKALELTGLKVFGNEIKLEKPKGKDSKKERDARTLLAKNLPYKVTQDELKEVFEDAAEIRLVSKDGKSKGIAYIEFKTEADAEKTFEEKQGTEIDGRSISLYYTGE
# [11] = molecular target: T1, nucleolin RBD1,2 (NCL RBD 1,2); experiment: fluorescence titration; 360A; PAGE: 10 mM phosphate, 140 mM KCl, 20 uM DNA, 1:1(:1) ratio, 30 min; fluorescence titration buffer, pH and temperature not given in the material; conditions: protein: recombinant; unlabelled in PAGE; stem-loop duplex plus G4; monomer major, dimer band also seen
# [12] = molecular target: T1, nucleolin RBD1,2 (NCL RBD 1,2); experiment: fluorescence titration; TMPyP4; PAGE: 10 mM phosphate, 140 mM KCl, 20 uM DNA, 1:1(:1) ratio, 30 min; fluorescence titration buffer, pH and temperature not given in the material; conditions: protein: recombinant; unlabelled in PAGE; stem-loop duplex plus G4; monomer major, dimer band also seen
# [13] = molecular target: T1, nucleolin RBD1,2 (NCL RBD 1,2); experiment: fluorescence titration; no ligand; PAGE: 10 mM phosphate, 140 mM KCl, 20 uM DNA, 1:1(:1) ratio, 30 min; fluorescence titration buffer, pH and temperature not given in the material; conditions: protein: recombinant; unlabelled in PAGE; stem-loop duplex plus G4; monomer major, dimer band also seen
Molecule,ΔTm [1],ΔTm [2],KD [3],binding [4],KD [5],further results
CN(C)c1ccc(Nc2c3ccc(NC(=O)CCN4CCCC4)cc3nc3cc(NC(=O)CCN4CCCC4)ccc23)cc1,8.99 ± 0.79 °C,3.73 ± 0.09 °C,–,–,–,–
C[n+]1cc(NC(=O)c2cccc(C(=O)Nc3cc4ccccc4[n+](C)c3)n2)cc2ccccc21,19.28 ± 0.99 °C,20.16 ± 0.41 °C,43.4 ± 8.47 nM,yes,38.2 ± 5.4 nM,ΔTm [6]: > 30 °C; binding [7]: yes
C[n+]1cc(NC(=O)c2ccc3ccc4ccc(C(=O)Nc5cc6ccccc6[n+](C)c5)nc4c3n2)cc2ccccc21,24.77 ± 2.56 °C,22.89 ± 1.49 °C,344 ± 53.8 nM,yes,227 ± 54 nM,binding ([8]; 280 nm band lost at 3–4 eq.): yes
C[n+]1ccc(-c2c3nc(c(-c4cc[n+](C)cc4)c4ccc([nH]4)c(-c4cc[n+](C)cc4)c4nc(c(-c5cc[n+](C)cc5)c5ccc2[nH]5)C=C4)C=C3)cc1,21.75 ± 1.08 °C,28.94 ± 0.23 °C,115 ± 7.09 nM,–,264 ± 30 nM,binding ([8]; ellipticity increase): yes; ΔTm [9]: ~ 25 °C
NCCOc1cc(C(=O)Nc2cc(OCCN)c3ccccc3n2)nc(C(=O)Nc2cc(OCCN)c3ccccc3n2)c1,-0.75 ± 1.02 °C,2.35 ± 0.44 °C,–,–,–,–
GGTTGGGGTGGTGGTGGTTGTGGTGGTGGTGGCCAACC (structured_DNA) [AS1411-N6],–,–,–,–,–,Kd [10]: 1500 ± 300 nM; Kd [11]: 700 ± 100 nM; Kd [12]: 1100 ± 200 nM; Kd [13]: 1000 ± 100 nM
